In one data set the test system is A549 cells. In words: A549 CellTitre Glo viability assay. It counts as cell-based. The note with it: Homo sapiens, 72 hr incubation. An excerpt:
Anti-tumor effects are monitored in cultured cancer cells after several days of compound treatment. The cell titer glo assay (Promega) measures the amount of ATP present as a proxy for cellular viability. Cellular counting is done using high-content microscopy followed by image analysis. A hanging drop 3D-culture system (3D Biomatrix) is used followed by cell titer glo to measure growth in a tumor-like environment.
The cellular assay provides information about the anti-neoplastic activity of the compounds of the invention. The compounds are tested against cultured cancer cells to determine whether or not the compounds of the invention are capable of intersecting with cancer cells to minimize or eliminate such cells. The assay involves establishing colonies of such cells and then treating them with the test compound under specified conditions and analysis regima to determine results.
(§1) Plate 25 μL of A549 cells in every well of 384-well plate using multidrop. • Two (2) black plates for IF at 2500 cells/well • Let plate sit at room temp for 10-15 minutes prior to putting in incubator to allow cells to stick in middle of plate. • One (1) white plate for viability at 500 cells/well.
Treat Cells: • Serial dilute compounds with a 10 point 2-fold serial dilution in DMSO to make 250× stock compound solution • Dilute compounds 1:125 in cell culture media to make a 2× solution Add 25 μL of dilution compounds to cell plates in well duplicates
Put cells back in incubator (6 hr incubation for black plates, 72 hr incubation for white plates).
Thaw an aliquot of frozen cell titer glo (Promega G7572) at room temperature.
Add 45 mL of NaCl/PBS solution to 5 ml of cell titer glo (10×).
Remove white plates from incubator, leave at room temp for 30 minutes.
Add 25 μL of diluted cell titer glo to each well.
Shake plate for >1 minute.
Incubate plate for >5 minutes to stabilize luminescence.
Read luminescence on plate reader

The target in the next data set is p97 (Homo sapiens, UniProt P55072). The experiment in a line: p97 ADP Glo ATPase biochemical assay. Particulars: 20 nM p97, 20 uM ATP, 37 deg C, 15 min; read-out: 97 ADP Glo Assay: IC50. As for the experimental part: The ATPase assay is performed according the following protocol: Purified enzyme (20 nM p97), substrate (20 μM ATP) and a dose titration of compounds are mixed in buffer (50 mM TRIS pH 7.5, 20 mM MgCl2, 0.02% TX-100, 1 mM DTT, 0.2% (v/v) glycerol) and incubated at 37° C. for 15 minutes. The reaction is terminated and the level of product generated is measured using the ADP Glo Assay Kit (Promega, Madison Wis.). Plotting product generated versus compound concentration and using a four-parameter fit model generates an IC50 value for each compounds.
The p97 assay is an initial screening assay used to determine inhibitory activity of the compounds of the invention against the p97 complex. As discussed above, inhibition of activity of the p97 proteosome complex can enable apoptosis and cause elimination of neoplastic cells (cancer cells). The method follows that of Christianson in Nat. Cell Biol., (2011) 14:93.
Assay Buffer is a mixture of 50 mM TRIS pH 7.5, 20 mM MgCl2, 0.02% TX-100, 1 mM DTT and 0.2% (v/v) Glycerol. The well plate is Platetype: Corning 3674, 384 w plate. The identification kit is an ADP glo kit (Promega): stop buffer, detection reagent.
Serial dilute compound in DMSO in a 1:3.33-fold 10 point serial dilution.
in each well of 384 w plate add the following reagents:
0.5 μL compound serial diluted in DMSO (Final Conc. 10%)
2 μL ATP (Final Conc.=20 uM, diluted in assay buffer)
2.5 μL p97 (Final Conc.=20 nM, diluted in assay buffer)
Incubate at 37 deg C. for 15 min.
Add 5μ of stop buffer, incubate at RT for 40 min.
Add 10 μL of detection reagent, incubate at RT for 30 min.
Read luminescence on Envision plate reader.
Normalize luminescence data using no enzyme (full inhibition) and no compound (no inhibition) controls. Plot normalized luminescence data against log-transformed concentration values and fit to a sigmoidal curve to determine IC50 values (done in Collaborative Drug Discovery software).
A general note: In ADP-Glo the light output rises with the ADP produced.

For the next data set, the system named is K48-Ub in A549 cells. The experiment in a line: A549 K48 cell intensity (K48 poly-ubiquitin immunofluorescence). In kind it is cell-based. The note with it: Homo sapiens, 6 hr incubation. As for the experimental part: Image-analysis is used to generate quantitative data from these assays that can be fit to a four-parameter sigmoid curve to derive IC50 values. Substrates of the ubiquitin-proteasome system, such as p53, are monitored after tumor cell lines are incubated with compounds for several hours. Accumulation of these proteins indicates an inhibition of proteasome-mediated degradation. Accumulation of lysine-48 chain linkage of poly-ubiquitin is also monitored by immunofluorescence as an indicator of ubiquitin-proteasome system inhibition. Both LC3 and SQSTM1 are mediators of autophagy. The localization and amounts of these proteins are monitored by immunofluorescence and report on the activity and inhibition of autophagy in response to p97 inhibition.
as §1
Treat Cells: • Serial dilute compounds with a 10 point 2-fold serial dilution in DMSO to make 250× stock compound solution • Dilute compounds 1:125 in cell culture media to make a 2× solution Add 25 μL of dilution compounds to cell plates in well duplicates Put cells back in incubator (6 hr incubation for black plates, 72 hr incubation for white plates).
Incubate cells in black plates with compound at 37 deg C. for 6 hrs. add 15 μL of 16% Paraformaldehyde (PFA) directly into media of each well, • incubate at room temp for 5 min, flick plate and wash in 50 µL of PBS block in 50 μL of Blocking Buffer for 30 minutes (can go up to several hours) • Blocking buffer: 1×PBS, 1% BSA, 0.3% Triton-X100, Hoechst (1:10,000) incubate in 25 μL of primary antibody in blocking buffer at 4 deg C. over night […]
Secondary Antibodies: • AlexaFluor488 Goat anti-Rabbit 1:2,000 (Life Tech A11008) • AlexaFluor555 Goat anti-Mouse 1:2,000 (Life Tech A21422) wash black plates 3× in 50 μL PBS (˜5 min each) • incubate in 25 μL of secondary antibody (1:2,000) in blocking buffer for 1-2 hrs at room temp (alexafluor488-anti-Rabbit/alexafluor555-anti-Mouse) Image plates in high content microscope with 405 nm, 488 nm and 555 nm filters Data Analysis: • Nuclear counts and cellular intensities of each markers are measured using Hoechst as a nuclear marker with an automated image analysis protocol using Matlab software (Math Works)

The subject of another data set is Caco-2 cell monolayer. Particulars: pH 7.4, range over 12 inter-day experiments.

Chain of p97 (P55072 whole entry): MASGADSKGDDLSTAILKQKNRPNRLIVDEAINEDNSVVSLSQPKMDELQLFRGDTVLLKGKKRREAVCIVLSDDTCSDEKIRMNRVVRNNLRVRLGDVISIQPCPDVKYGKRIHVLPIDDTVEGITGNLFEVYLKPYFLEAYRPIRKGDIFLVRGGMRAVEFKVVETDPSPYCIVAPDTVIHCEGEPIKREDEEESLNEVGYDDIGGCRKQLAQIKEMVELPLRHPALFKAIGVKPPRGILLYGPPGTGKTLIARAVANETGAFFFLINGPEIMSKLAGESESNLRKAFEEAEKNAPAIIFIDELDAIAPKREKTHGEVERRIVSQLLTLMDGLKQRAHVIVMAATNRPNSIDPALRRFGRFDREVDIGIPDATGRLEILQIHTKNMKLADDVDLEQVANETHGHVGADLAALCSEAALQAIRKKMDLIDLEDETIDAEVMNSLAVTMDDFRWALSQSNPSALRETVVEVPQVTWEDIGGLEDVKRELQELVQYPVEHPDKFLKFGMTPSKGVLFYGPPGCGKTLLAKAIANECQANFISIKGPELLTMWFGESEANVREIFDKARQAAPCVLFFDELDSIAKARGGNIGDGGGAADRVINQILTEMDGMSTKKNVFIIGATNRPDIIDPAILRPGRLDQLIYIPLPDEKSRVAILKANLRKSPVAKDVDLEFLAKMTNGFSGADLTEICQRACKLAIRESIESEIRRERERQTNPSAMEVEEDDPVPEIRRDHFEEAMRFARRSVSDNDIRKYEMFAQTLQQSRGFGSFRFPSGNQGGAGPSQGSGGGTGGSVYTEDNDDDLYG

As usually defined, the IC50 is the midpoint of a concentration-inhibition curve. For the compound `Cc1cc2c(C(N)=O)cccc2n1-c1nc(NCc2ccccc2)c2c(n1)C1CCCCN1CC2` (centres unmarked) [Compound 001, 1-(4-(benzylamino)-6,8,9,10,11,11a-hexahydro-5H-pyrimido[4,5-a]quinolizin-2-yl)-2-methyl-1H-indole-4-carboxamide], the IC50 with A549 cells was 1340 nM; on p97, 16 nM; with K48-Ub in A549 cells, 736 nM.
The corresponding values for `Cc1cc2c(C(N)=O)cccc2n1-c1nc(NCc2ccccc2)c2c(n1)C1CCCN1CC2` (centres unmarked) [Compound 002, 1-(4-(benzylamino)-5,6,8,9,10,10a-hexahydropyrimido[5,4-g]indolizin-2-yl)-2-methyl-1H-indole-4-carboxamide] are 2690 nM, 15 nM and 6620 nM.
The like results for `Cc1cc2c(C(N)=O)cccc2n1-c1nc2c(c(NCc3ccccc3)n1)CN1CCCCC1C2` (centres unmarked) [Compound 003, 1-(4-(benzylamino)-7,8,9,10,10a,11-hexahydro-5H-pyrimido[4,5-b]quinolizin-2-yl)-2-methyl-1H-indole-4-carboxamide] were, in that order, 2340 nM, 25 nM and 642 nM.
The like results for `Cc1cc2c(C(N)=O)cccc2n1-c1nc2c(c(NCc3ccccc3)n1)CN1CCCC1C2` (centres unmarked) [Compound 004, 1-[4-(Benzylamino)-5,7,8,9,9a,10-hexahydropyrimido[5,4-f]indolizin-2-yl]-2-methyl-indole-4-carboxamide] were, in that order, 1120 nM, 19 nM and 273 nM.
`CC(C)NCC(O)COc1cccc2ccccc12` (centres unmarked) [Propranolol]: in the data set with Caco-2 cell monolayer (A to B), the “Peff in pH 7.4 Caco-2, A B, Range” value is 18.50-36.80 x E−6 cm/sec. The “Peff in pH 7.4 Caco-2, B A, Range” value in the data set with Caco-2 cell monolayer (B to A) is listed as 16.30-31.40 x E−6 cm/sec.

The values above are taken from patent US20170267679A1, “[…] FUSED PYRIMIDINE COMPOUNDS AS INHIBITORS OF p97 COMPLEX” (Cleave Biosciences, Inc., priority 2016, published 2017).
